Data set [1] concerns Palaeomonetes pugio (grass shrimp). Put plainly: Atrazine stress: biomarker responses in grass shrimp. In kind it is in vivo. To be noted: for B-crystallin / Metallo. (metallothionein) / SOD (Mn SOD) / ubiquitin: 8-hour exposure. The procedure: (§1) During the seven-day acclimation, grass shrimp were subject to a […] photosynthetic-active-radiation 14 hour photoperiod at 22° C. […] Dissolved oxygen, ammonia content, and temperature were continually monitored throughout the seven-day chamber acclimation.
Atrazine stress—Grass shrimp were exposed to […], or 1 mg/L of an acetone stock of technical grade atrazine (99%).
(§2) Samples were vortexed for 30 seconds and then centrifuged at 10,000× g for 5 minutes. The supernatant was placed in a new tube for LPO and GSH analyses. Protein concentration of samples were assayed by the method of Ghosh et al. (1988), supra.
(§3) Samples were then boiled for 3 minutes, allowed to sit at 25° C. for 5 minutes, and then centrifuged at 10,000× g for 5 minutes. […] The sample was then subjected to another protein concentration assay.
(§4) Samples were analyzed for LPO and total GSH content following the manufacturer's instruction. Samples for each assay were analyzed in triplicate, and sample means provided independent unit of statistical analysis.
(§5) All samples were analyzed in triplicate. ELISPOT technique on nitrocellulose membrane was employed using a dot blot apparatus.

Data set [2] relates to Ilyanassa obsoleta (mud snails). Put plainly: Atrazine exposure: biomarker responses in mud snails. The data set is classed as in vivo. To be noted: 8-hour exposure. As to the method: Tanks were aerated with air stones. Snails were fed commercially available algal pellets. […]
(§6) Samples for each assay were analyzed in triplicate.
(§7) Sample was then subjected to another protein concentration assay.
(§8) All samples were analyzed in triplicate.

Data set [3] has the same test system. In kind it is in vivo. The procedure: Tanks were aerated with air stones. Snails were fed commercially available algal pellets.
The solvent carrier was water.
No evidence of either was found.
as §6, §7, §8

For data set [4] the test system is unchanged. The procedure:
To determine that the antibodies bound to their specific targets, preliminary experiments were conducted to ensure the validity of the antibody assays. Snails were exposed either to high temperature, cadmium, ethanol, or acetone, homogenized in an SDS/50 mM dithiothreitol buffered solution, subjected to SDS-PAGE, immunoblotted to PVDF membrane, and assayed with at least 3 different antibodies per cellular parameter. […] Purified protein of each cellular parameter was run beside control and treated samples.

Data set [5] concerns Palaeomonetes pugio (grass shrimp). In kind it is in vivo. The text has this:
Purified protein of each cellular parameter was run along side control and treated samples.

Data set [6] has the same test system. Put plainly: Cadmium stress: biomarker responses in grass shrimp. In kind it is in vivo. The note with it: for Cyt. P450 (cytochrome P450 2E1) / SOD (Mn SOD): 8-hour exposure. As to the method: as §1
Cadmium stress—Grass shrimp were subjected to an 8-hour exposure to 0 M, […], and […] cadmium chloride. The solvent carrier was water.
as §2, §3, §4, §5

The subject of data set [7] is Ilyanassa obsoleta (mud snails). As to the kind of experiment: Endosulfan exposure: biomarker responses in mud snails. The note with it: 8-hour exposure.
[8] abbreviates: control to high atrazine treatments, grass shrimp.
Setting [9] is: high: 50 M cadmium chloride, 8-hour exposure.
Where [10] appears, read: low: 5 M cadmium chloride, 8-hour exposure.

Where two headings read alike, the source gives them in different places. Marks after values point to notes of the source that are not given here.

As for `CCNc1nc(Cl)nc(NC(C)C)n1` [Atrazine, atrazine], in data set [1] (setting [8]), the “Levels of LPO decreased” value was determined as 38% and the “levels of Hsp60 increased” value is “nearly five-fold”. Besides, in data set [1] (high: 1 mg/L atrazine), the B-crystallin is on record as 190 ± 27 ng Hsp or B-crystallin/ g total protein, the “Metallo. (metallothionein)” value is recorded as 1.7 ± 0.35 ng metallothionein/mg total protein and the “SOD (Mn SOD)” value amounted to 7.9 ± 1.86 g SOD/ mg total protein. In addition, in data set [1] (low: 1 g/L atrazine), the B-crystallin is 290 ± 27 ng Hsp or B-crystallin/ g total protein, the “Metallo. (metallothionein)” value is 1.4 ± 0.17 ng metallothionein/mg total protein, the “SOD (Mn SOD)” value came to 4.3 ± 0.23 g SOD/ mg total protein and the ubiquitin is listed as 1.44 ± 0.068 nanog ubiquitin/ g total protein. For the same compound, in data set [1] (medium: 500 g/L atrazine), the B-crystallin is given as 250 ± 45 ng Hsp or B-crystallin/ g total protein, the “Metallo. (metallothionein)” value was 1.8 ± 0.45 ng metallothionein/mg total protein, the “SOD (Mn SOD)” value was found to be 4.6 ± 1.61 g SOD/ mg total protein and the ubiquitin is recorded as 1.38 ± 0.066 nanog ubiquitin/ g total protein. Also, in data set [2] (high: 1 mg/L atrazine), the B-crystallin is 25 ± 2.1 pg Hsp or B-crystallin/ g total protein, the “Cyt. P450 (cytochrome P450 2E1 homologue)” value is on record as 17.8 ± 3.07 relative protein concentrations, the GSH was 83 ± 3.1 mM GSH/ g total protein and the Hsp22 was 6 ± 1.9 pg Hsp or B-crystallin/ g total protein. In data set [2] (high: 1 mg/L atrazine), the Hsp60 was 0.158 ± 0.0086 pg Hsp or B-crystallin/ g total protein, the Hsp70 is given as 121.8 ± 6.08 pg Hsp or B-crystallin/ g total protein, the LPO turned out to be 1.32 ± 0.037 mM LPO/mg total protein and the “Metallo (metallothionein)” value is reported as 8.6 ± 1.72 ng metallothionein/mg total protein. In data set [2] (high: 1 mg/L atrazine), the “Mn SOD” value is on record as 7.8 ± 1.66 relative protein concentrations and the ubiquitin is on record as 41 ± 3.7 ng ubiquitin/ g total protein. Also, in data set [2] (low: 1 g/L atrazine), the B-crystallin is listed as 29 ± 1.3 pg Hsp or B-crystallin/ g total protein, the “Cyt. P450 (cytochrome P450 2E1 homologue)” value is listed as 18.0 ± 2.90 relative protein concentrations, the GSH is given as 85 ± 3.6 mM GSH/ g total protein and the Hsp22 is 6 ± 2.0 pg Hsp or B-crystallin/ g total protein. In data set [2] (low: 1 g/L atrazine), the Hsp70 is on record as 123.4 ± 7.05 pg Hsp or B-crystallin/ g total protein, the LPO was 1.16 ± 0.040 mM LPO/mg total protein, the “Metallo (metallothionein)” value is listed as 18.2 ± 2.06 ng metallothionein/mg total protein and the “Mn SOD” value was 9.0 ± 1.76 relative protein concentrations. Further, the ubiquitin in data set [2] (low: 1 g/L atrazine) is given as 42 ± 3.9 ng ubiquitin/ g total protein.

Take `[Cl][Cd][Cl]` [Cadmium Chloride, cadmium chloride]: in data set [3] (high CdCl2 concentrations, mud snails), the “Metallothionine increase in mean levels compared to the control” value is on record as “more than a six-fold increase”. Besides, in data set [3] (setting [9]), the “Cyt. P450 (cytochrome P450 2E1 homologue)” value is listed as 27.4 ± 3.14 relative protein concentrations and the LPO is 1.16 ± 0.093 mM LPO/mg total protein. Further, in data set [3] (setting [10]), the “Cyt. P450 (cytochrome P450 2E1 homologue)” value is given as 28.6 ± 3.11 relative protein concentrations, the Hsp60 is 0.419^b ± pg Hsp or B-crystallin/ g total protein and the LPO was 1.1 mM LPO/mg total protein. In data set [4] (immunoblot), the “induction of protein detected by Cytochrome P450 2E1 antibody (ca. 50 kDa)” value (shortened to “induction of protein detected … (ca. 50 kDa)”) is on record as “did not elicit significant accumulation”; the “induction of protein detected by Mn SOD antibody (about 26 kDa)” value is “inducible by both heat stress and cadmium”. In addition, in data set [5] (immunoblot), the “induction of protein detected by Mn SOD antibody (about 23 kDa)” value (from here on “induction … (about 23 kDa)”) was “inducible by both heat stress and cadmium”; the “induction of proteins detected by Cytochrome P450 2E1 antibody (ca. 53 kDa)” value (“induction of proteins detected … (ca. 53 kDa)” for short) was “did not elicit significant accumulation”; the “induction of proteins detected by metallothionein antibody (ca. 7 k to 12 kDa)” value is “cadmium-inducible”. Moreover, in data set [6] (high CdCl2 concentrations, grass shrimp), the “Metallothionine increase in mean levels compared to the control” value is given as “more than a six-fold increase”. Further, in data set [6] (high: 50 uM cadmium chloride), the “Cyt. P450 (cytochrome P450 2E1)” value is 12.9 ± 1.26 relative protein concentrations and the “SOD (Mn SOD)” value was 4.0 ± 0.16 g SOD/ mg total protein. Further, in data set [6] (low: 1 uM cadmium chloride), the “Cyt. P450 (cytochrome P450 2E1)” value was 14.5 ± 1.19 relative protein concentrations and the “SOD (Mn SOD)” value turned out to be 3.3 ± 0.12 g SOD/ mg total protein. Besides, in data set [6] (medium: 5 uM cadmium chloride), the “Cyt. P450 (cytochrome P450 2E1)” value is recorded as 13.4 ± 1.48 relative protein concentrations and the “SOD (Mn SOD)” value is 4.3 ± 0.80 g SOD/ mg total protein.

As to `O=S1OCC2C(CO1)C1(Cl)C(Cl)=C(Cl)C2(Cl)C1(Cl)Cl` (stereo not shown) [Endosulfan, endosulfan], in data set [7] (high: 1 g/L endosulfan), the B-crystallin is given as 13 ± 2.7 pg Hsp or B-crystallin/ g total protein, the Hsp26 is listed as 23 ± 3.3 pg Hsp or B-crystallin/ g total protein and the “Metallo. (metallothionein)” value was 14 ± 3.11 ng metallothionein/mg total protein. Moreover, in data set [7] (low: 50 ng/L endosulfan), the B-crystallin is listed as 12 ± 3.1 pg Hsp or B-crystallin/ g total protein, the Hsp26 was 20 ± 12.673 pg Hsp or B-crystallin/ g total protein and the “Metallo. (metallothionein)” value is on record as 19.4 ± 1.99 ng metallothionein/mg total protein. Further, in data set [7] (medium: 500 ng/L endosulfan), the B-crystallin is recorded as 11 ± 3.9 pg Hsp or B-crystallin/ g total protein, the Hsp26 is on record as 19 ± 5.9 pg Hsp or B-crystallin/ g total protein and the “Metallo. (metallothionein)” value is 22.2 ± 3.15 ng metallothionein/mg total protein.

Regarding `CC(C)=O` [acetone], in data set [4] (immunoblot), the “induction of Hsp70 homologues” value was “inducible by all treatments except ethanol and acetone”; the “induction of protein detected by Mn SOD antibody (about 26 kDa)” value was “not by exposure to acetone”. In addition, the “induction of protein detected … (ca. 50 kDa)” value in data set [4] (in vivo) was “ethanol- and acetone-inducible”. In addition, in data set [5] (immunoblot), the “induction of Hsp70 homologues” value was “inducible by all treatments except ethanol and acetone”; the “induction … (about 23 kDa)” value is listed as “not by exposure to ethanol or acetone”. The “induction of proteins detected … (ca. 53 kDa)” value in data set [5] (in vivo) is “ethanol- and acetone-inducible”.

With `CCO` [ethanol], in data set [4] (in vivo), the “induction of Hsp70 homologues” value was “inducible by all treatments except ethanol and acetone”; the “induction of protein detected … (ca. 50 kDa)” value is “ethanol- and acetone-inducible”. In data set [5] (in vivo), the “induction of Hsp70 homologues” value is “inducible by all treatments except ethanol and acetone”; the “induction … (about 23 kDa)” value was “not by exposure to ethanol or acetone”; the “induction of proteins detected … (ca. 53 kDa)” value was “ethanol- and acetone-inducible”.

Values taken from US20030138812A1, “Assessment of ecosystem health by evaluating multiple biomarkers in a nonhuman organism” (priority 2000, published 2003).
